For test [1], the target named is T1, 5-hydroxytryptamine receptor 2A (Homo sapiens, UniProt P28223). Format: functional, cell-based.
Test [2] addresses Growth hormone secretagogue receptor type 1 (Homo sapiens, UniProt Q92847).
For test [3], the target named is T2, Alpha-2A adrenergic receptor (Homo sapiens, UniProt P08913).
T2 sequence (P08913 whole entry): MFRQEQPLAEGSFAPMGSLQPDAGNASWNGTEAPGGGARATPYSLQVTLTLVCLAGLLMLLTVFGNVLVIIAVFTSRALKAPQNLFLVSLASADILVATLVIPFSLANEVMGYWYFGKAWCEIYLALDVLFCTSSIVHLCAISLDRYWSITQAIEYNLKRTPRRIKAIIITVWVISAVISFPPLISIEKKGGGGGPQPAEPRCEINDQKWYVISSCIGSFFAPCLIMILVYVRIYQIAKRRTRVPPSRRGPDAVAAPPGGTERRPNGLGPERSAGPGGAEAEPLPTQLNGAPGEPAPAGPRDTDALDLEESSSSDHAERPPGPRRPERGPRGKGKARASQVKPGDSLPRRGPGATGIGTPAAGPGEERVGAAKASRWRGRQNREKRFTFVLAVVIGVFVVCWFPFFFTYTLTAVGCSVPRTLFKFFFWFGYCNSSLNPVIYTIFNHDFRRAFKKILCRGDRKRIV
It is filed as functional, cell-based.

Test [4] deals with Beta-1 adrenergic receptor (Homo sapiens, UniProt P08588). Format: functional.
Sequence of Beta-1 adrenergic receptor (P08588 whole entry): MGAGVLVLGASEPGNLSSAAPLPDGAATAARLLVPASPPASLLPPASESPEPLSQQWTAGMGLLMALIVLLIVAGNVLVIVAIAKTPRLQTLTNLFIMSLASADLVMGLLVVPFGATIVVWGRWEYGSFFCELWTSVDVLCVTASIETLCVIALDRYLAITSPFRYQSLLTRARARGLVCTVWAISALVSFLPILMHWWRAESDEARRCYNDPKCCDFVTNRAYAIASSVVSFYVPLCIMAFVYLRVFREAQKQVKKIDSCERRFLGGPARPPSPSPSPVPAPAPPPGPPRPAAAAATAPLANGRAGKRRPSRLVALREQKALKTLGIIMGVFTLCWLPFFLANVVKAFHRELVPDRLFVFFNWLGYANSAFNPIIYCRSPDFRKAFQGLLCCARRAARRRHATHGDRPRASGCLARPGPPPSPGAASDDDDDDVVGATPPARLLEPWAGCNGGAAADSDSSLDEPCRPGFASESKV
Another test concerns the target T3, Thromboxane A2 receptor (Homo sapiens, UniProt P21731).
T3 sequence (P21731 whole entry): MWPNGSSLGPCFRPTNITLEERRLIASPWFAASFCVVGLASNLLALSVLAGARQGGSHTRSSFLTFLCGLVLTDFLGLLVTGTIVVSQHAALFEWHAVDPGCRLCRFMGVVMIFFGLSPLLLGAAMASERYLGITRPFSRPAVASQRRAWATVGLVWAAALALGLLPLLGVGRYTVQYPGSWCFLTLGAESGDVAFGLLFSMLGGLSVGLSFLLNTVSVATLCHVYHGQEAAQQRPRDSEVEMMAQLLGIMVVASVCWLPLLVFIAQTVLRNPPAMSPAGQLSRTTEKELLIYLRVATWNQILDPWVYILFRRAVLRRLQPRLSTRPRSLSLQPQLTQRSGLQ

Test [5] has as its target T1, 5-hydroxytryptamine receptor 2A. Format: functional, cell-based. The source holds these as a separate data set.
For the next test, the target named is Histamine H3 receptor (Homo sapiens, UniProt Q9Y5N1).
Sequence of Histamine H3 receptor (Q9Y5N1 whole entry): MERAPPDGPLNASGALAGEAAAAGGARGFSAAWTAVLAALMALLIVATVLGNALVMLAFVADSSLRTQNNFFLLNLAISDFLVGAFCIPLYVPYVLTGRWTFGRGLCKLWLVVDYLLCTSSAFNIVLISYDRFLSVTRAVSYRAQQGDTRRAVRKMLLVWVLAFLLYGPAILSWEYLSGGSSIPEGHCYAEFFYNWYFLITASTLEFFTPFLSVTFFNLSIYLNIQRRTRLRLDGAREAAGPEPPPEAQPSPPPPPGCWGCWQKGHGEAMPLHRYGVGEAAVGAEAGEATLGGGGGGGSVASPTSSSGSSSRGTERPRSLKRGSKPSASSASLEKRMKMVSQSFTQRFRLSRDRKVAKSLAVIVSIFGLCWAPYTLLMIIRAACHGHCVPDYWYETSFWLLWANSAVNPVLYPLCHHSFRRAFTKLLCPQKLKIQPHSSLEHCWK
Test [6] concerns the target T4, Muscarinic acetylcholine receptor M2 (Homo sapiens, UniProt P08172).
T4 sequence (P08172 whole entry): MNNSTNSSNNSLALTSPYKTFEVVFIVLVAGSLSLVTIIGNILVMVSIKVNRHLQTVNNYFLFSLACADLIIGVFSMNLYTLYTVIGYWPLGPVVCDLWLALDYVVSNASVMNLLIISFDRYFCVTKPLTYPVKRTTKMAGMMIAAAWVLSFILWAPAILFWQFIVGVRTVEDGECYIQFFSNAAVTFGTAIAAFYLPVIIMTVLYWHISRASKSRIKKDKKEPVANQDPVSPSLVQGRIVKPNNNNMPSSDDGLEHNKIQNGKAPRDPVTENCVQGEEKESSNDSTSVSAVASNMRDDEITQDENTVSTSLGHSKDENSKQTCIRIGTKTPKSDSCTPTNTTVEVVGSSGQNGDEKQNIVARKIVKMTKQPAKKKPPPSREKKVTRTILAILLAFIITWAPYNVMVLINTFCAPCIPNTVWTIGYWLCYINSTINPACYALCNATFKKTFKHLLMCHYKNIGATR
It is filed as functional, cell-based.

For test [7], the target named is cGMP-inhibited 3',5'-cyclic phosphodiesterase 3A (Homo sapiens, UniProt Q14432). Format: functional.
Sequence of cGMP-inhibited 3',5'-cyclic phosphodiesterase 3A (Q14432 whole entry): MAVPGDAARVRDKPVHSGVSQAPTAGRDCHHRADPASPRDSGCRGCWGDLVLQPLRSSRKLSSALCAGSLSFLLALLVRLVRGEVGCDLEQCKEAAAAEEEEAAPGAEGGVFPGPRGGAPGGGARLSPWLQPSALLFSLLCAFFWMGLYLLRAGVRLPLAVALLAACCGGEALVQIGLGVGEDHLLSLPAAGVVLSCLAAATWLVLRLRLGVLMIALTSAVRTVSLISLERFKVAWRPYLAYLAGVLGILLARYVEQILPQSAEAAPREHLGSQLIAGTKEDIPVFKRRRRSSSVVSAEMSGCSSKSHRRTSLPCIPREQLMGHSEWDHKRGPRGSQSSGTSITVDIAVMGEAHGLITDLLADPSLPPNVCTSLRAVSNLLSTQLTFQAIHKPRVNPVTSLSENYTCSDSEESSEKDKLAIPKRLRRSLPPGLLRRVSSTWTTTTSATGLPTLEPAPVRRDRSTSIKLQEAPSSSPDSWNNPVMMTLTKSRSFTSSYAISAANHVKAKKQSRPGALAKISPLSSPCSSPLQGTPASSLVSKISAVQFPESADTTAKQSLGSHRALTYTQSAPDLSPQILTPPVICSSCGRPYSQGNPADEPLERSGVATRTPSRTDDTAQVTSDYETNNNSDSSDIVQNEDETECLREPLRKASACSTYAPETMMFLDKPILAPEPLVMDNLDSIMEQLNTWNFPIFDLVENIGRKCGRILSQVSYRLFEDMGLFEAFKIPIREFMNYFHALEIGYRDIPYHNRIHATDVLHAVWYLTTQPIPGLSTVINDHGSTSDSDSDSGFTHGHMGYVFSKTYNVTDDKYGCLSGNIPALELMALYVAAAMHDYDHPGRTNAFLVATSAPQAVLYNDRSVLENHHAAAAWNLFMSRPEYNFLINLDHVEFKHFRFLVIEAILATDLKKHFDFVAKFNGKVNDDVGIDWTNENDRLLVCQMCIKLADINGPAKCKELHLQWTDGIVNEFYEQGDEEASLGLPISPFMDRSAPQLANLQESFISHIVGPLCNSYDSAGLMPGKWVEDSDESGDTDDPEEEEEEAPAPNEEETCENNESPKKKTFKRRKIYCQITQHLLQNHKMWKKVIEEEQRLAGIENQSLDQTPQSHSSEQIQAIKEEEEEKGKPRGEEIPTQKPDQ
Test [8] has as its target T5, 5-hydroxytryptamine receptor 1A (Homo sapiens, UniProt P08908).
T5 sequence (P08908 whole entry): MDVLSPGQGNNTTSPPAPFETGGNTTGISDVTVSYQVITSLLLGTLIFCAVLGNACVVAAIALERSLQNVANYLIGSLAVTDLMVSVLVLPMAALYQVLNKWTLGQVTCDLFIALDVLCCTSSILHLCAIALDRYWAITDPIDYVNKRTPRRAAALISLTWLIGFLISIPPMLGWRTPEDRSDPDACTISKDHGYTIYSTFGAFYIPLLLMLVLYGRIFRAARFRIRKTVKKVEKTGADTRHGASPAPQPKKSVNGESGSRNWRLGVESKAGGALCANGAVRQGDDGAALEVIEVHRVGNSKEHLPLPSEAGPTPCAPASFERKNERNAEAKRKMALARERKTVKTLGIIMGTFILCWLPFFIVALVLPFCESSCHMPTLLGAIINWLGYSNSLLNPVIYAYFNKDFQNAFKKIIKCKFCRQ
Format: functional, cell-based.

For test [9], the target named is T6, Prostaglandin G/H synthase 1 (Rattus norvegicus, UniProt Q63921).
T6 sequence (Q63921 whole entry): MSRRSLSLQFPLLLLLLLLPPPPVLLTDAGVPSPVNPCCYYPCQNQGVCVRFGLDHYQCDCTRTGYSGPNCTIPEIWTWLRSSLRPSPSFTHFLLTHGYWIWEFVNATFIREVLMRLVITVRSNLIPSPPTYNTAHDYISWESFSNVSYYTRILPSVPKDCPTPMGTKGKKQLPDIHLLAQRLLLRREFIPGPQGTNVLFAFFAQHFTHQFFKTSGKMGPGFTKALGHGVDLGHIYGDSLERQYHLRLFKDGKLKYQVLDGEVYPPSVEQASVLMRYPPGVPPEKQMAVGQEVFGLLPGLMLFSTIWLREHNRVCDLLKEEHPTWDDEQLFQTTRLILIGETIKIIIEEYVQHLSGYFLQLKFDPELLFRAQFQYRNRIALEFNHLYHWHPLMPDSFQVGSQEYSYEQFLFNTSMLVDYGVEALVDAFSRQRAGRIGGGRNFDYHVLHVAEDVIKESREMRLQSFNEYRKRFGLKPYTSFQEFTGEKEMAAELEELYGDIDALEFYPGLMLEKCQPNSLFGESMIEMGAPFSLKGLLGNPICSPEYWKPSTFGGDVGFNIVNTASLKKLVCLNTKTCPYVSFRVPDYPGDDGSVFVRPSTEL
Format: functional.

The next test has as its target Vasopressin V2 receptor (Homo sapiens, UniProt P30518).

Broadly, the AC50 is the concentration at which the activity in the assay is half-maximal. A higher AC50 goes with activity only at high concentration.

Bounds are passed on as bounds.
Also: assay procedure not described here.

Sequence of Vasopressin V2 receptor (P30518 whole entry): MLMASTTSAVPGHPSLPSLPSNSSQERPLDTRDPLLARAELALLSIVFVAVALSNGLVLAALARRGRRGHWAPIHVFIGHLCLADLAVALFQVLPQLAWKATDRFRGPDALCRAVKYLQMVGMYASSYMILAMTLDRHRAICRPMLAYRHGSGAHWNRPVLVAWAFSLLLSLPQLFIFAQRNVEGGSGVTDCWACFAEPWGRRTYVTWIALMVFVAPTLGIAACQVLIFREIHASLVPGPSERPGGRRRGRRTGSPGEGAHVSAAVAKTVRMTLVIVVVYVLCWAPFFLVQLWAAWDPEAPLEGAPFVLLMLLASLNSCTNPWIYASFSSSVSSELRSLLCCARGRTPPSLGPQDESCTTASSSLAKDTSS
Sequence of Growth hormone secretagogue receptor type 1 (Q92847 whole entry): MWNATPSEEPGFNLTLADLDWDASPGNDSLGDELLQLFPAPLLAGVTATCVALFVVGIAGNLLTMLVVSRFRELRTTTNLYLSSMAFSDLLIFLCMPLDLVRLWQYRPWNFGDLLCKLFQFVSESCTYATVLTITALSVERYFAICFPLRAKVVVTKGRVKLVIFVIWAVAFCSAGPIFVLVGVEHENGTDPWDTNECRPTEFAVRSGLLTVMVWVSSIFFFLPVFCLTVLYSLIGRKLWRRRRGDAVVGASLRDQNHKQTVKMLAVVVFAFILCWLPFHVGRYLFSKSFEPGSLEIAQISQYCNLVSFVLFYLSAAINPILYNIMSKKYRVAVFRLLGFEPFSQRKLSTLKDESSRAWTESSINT
T1 sequence (P28223 whole entry): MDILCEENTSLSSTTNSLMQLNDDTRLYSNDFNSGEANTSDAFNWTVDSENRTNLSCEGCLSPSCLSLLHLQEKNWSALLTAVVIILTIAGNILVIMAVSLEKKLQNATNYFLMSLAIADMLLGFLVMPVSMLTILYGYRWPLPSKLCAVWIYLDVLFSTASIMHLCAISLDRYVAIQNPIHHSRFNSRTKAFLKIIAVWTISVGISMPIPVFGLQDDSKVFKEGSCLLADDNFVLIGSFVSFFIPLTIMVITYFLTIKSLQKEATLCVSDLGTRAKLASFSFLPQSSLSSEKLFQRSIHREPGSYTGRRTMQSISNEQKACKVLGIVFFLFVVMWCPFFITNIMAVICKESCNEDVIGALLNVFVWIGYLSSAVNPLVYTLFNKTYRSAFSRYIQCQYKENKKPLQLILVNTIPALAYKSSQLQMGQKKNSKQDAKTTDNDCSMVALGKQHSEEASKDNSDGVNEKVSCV

Take `N#Cc1ccccc1-c1cc(-c2ccccn2)cn(-c2ccccc2)c1=O`: the concentration at half-maximal activity (AC50) (in test [1]; in test [2]; in test [3]; in [4]; at Thromboxane A2 receptor; in test [5]) was over 30 µM in each case. Moreover, the AC50 (at Histamine H3 receptor; in test [6]; in [7]; in [8]; in test [9]; on Vasopressin V2 receptor) was over 30 µM in each case.
Regarding `N=C(N)NCCCCCCC(=O)NC(O)C(=O)NCCCCNCCCN` (stereo not given), the AC50 (in [1]; in test [2]; in test [3]; in test [4]; on Thromboxane A2 receptor; in [5]) was over 30 µM in each case. Also, the AC50 (at Histamine H3 receptor; in test [6]; in test [7]; in test [8]; in [9]; on Vasopressin V2 receptor) was over 30 µM each time.
Regarding `C=C[C@@]1(C)CC(=O)[C@]2(O)[C@@]3(C)[C@@H](O)CCC(C)(C)[C@@H]3[C@H](OC(=O)CCN(C)C)[C@H](OC(C)=O)[C@@]2(C)O1`, the concentration at half-maximal activity (AC50) (in test [1]; in test [2]; in test [3]; in test [4]; on Thromboxane A2 receptor; in test [5]) was over 30 µM in each case. The AC50 (at Histamine H3 receptor; in [6]; in test [7]; in test [8]; in test [9]; at Vasopressin V2 receptor) was over 30 µM throughout.
Regarding `CC(=O)OCC(=O)[C@@]1(O)CC[C@H]2[C@@H]3CCC4=CC(=O)CC[C@]4(C)C3=CC[C@@]21C` [ANECORTAVE ACETATE], the AC50 (in test [1]; in test [2]; in test [3]; in test [4]; on Thromboxane A2 receptor; in test [5]) was over 10 µM each time. Besides, the AC50 is over 10 µM at Histamine H3 receptor; over 10 µM in [6]; over 30 µM in test [7]; over 10 µM in test [8]; over 10 µM in test [9]; over 10 µM on Vasopressin V2 receptor.
With `NS(=O)(=O)c1cc2c(cc1C(F)(F)F)NC(Cc1ccccc1)NS2(=O)=O` (stereo not given) [BENDROFLUMETHIAZIDE], the AC50 (in test [1]; in test [2]; in [3]; in test [4]; on Thromboxane A2 receptor; in test [5]) was over 10 µM in each case. The concentration at half-maximal activity (AC50) on Histamine H3 receptor is over 10 µM; in test [6], over 10 µM; in [7], over 30 µM; in [8] it was over 10 µM; in [9], over 10 µM; at Vasopressin V2 receptor, over 10 µM.
In the case of `COCCOC(=O)C1=C(C)NC(C)=C(C(=O)OC/C=C/c2ccccc2)C1c1cccc([N+](=O)[O-])c1` (stereo not given) [CILNIDIPINE], the AC50 in test [1] was over 30 µM; in [2], over 30 µM; in test [4], over 30 µM; at Thromboxane A2 receptor, 21 µM; in [5], over 30 µM; on Histamine H3 receptor, over 30 µM. Moreover, the concentration at half-maximal activity (AC50) (in test [6]; in [7]; in [8]; in test [9]; at Vasopressin V2 receptor) was over 30 µM in each case.
As to `CC(=O)Nc1c(I)c(C(=O)N[C@H]2C(O)O[C@H](CO)[C@@H](O)[C@@H]2O)c(I)c(N(C)C(C)=O)c1I` (stereo not given in full) [METRIZAMIDE], the half-maximal activity concentration (AC50) (in [1]; in test [2]; in [3]; in test [4]; on Thromboxane A2 receptor; in test [5]) was over 10 µM in each case. The AC50 was over 10 µM in test [6]; over 30 µM in test [7]; over 10 µM in test [8]; over 10 µM in [9]; over 10 µM on Vasopressin V2 receptor.
For the compound `CC(=O)O[C@H]1C[C@@H]2CC[C@@H]3[C@H](CC[C@@]4(C)[C@H]3C[C@H]([N+]3(C)CCCCC3)[C@@H]4OC(C)=O)[C@@]2(C)C[C@@H]1[N+]1(C)CCCCC1` [PANCURONIUM], the AC50 (in [1]; in test [2]; in test [3]; in test [4]; at Thromboxane A2 receptor; in test [5]) was over 10 µM throughout. For the same compound, the AC50 in [6] was over 10 µM; in [7] it was over 30 µM; in [8] it was over 10 µM; in test [9] it was over 10 µM; on Vasopressin V2 receptor, over 10 µM.
As for `CC(=O)c1ccc2c(c1)N(CCCN1CCC(CCO)CC1)c1ccccc1S2` [PIPERACETAZINE], the AC50 is 0.3 µM in test [1]; over 30 µM in test [2]; over 30 µM in test [4]; over 30 µM at Thromboxane A2 receptor; over 30 µM in test [5]; over 30 µM at Histamine H3 receptor. The AC50 in test [6] is 24 µM; in [7] it was over 10 µM; in test [8] it was over 30 µM; in test [9], over 30 µM; on Vasopressin V2 receptor it was over 30 µM.
Consider `CCN(CC)CC(=O)Oc1ccc(NC(C)=O)cc1` [PROPACETAMOL], for which the half-maximal activity concentration (AC50) (in test [1]; in [2]; in test [3]; in test [4]; on Thromboxane A2 receptor; in test [5]) was over 30 µM each time. Besides, the AC50 (on Histamine H3 receptor; in [6]; in test [7]; in test [8]; at Vasopressin V2 receptor) was over 30 µM throughout.

(Values after ChEMBL document CHEMBL5291721, “A preclinical secondary pharmacology resource illuminates target-adverse drug reaction associations of marketed drugs” (Nat Commun, 2023).)
